# In PubChem BioAssay AID624265 (Broad Institute, 2012):
# Several values for one entry are separate records, joined by “and”; a condition that tells them apart may be missing. Equal values may be shown once. Activity calls are given as the source filed them.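 How the source made its calls: active means at a dose no more than twice the top valid tested dose, the fitted curve drops below -35% activity change; inactive means the rest, rising-direction activity included.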
# What was measured:
# [1] = test system: NIH3T3 viability, CellTiter-Glo ATP luminescence; assay: NIH3T3 cell viability loss, ATP content – CellTiter-Glo luminescence, cherry-pick, set 2, cytotoxicity control for HSP40 inhibitor project, dose response (AID 624265);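 further: cells exposed to compound for 48 hours before the ATP read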;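 on activity change, negative = toxicity: 0% = median neutral control signal and -100% = no luminescence left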
# [2] = as above; conditions: NIH3T3 viability, CellTiter-Glo ATP luminescence; at 50 µM (top of the series)
Structure (SMILES),AC35 [1] [µM],"activity change, negative = toxicity [2]"
Oc1cccc2ccc(Nc3ccccn3)nc12,14.2,–
COc1cccc(/C=N/Nc2ncnc3scc(-c4ccccc4)c23)c1O,48.4,–
Cc1ccc(S(=O)(=O)Nc2ccc(O)c3cccnc23)cc1,33,–
Nc1cc2nc3ccccc3oc-2cc1=O,28,–
Cc1[nH]n(-c2ccccc2)c(=O)c1/C=N/Nc1nncc(-c2ccccc2)n1,19.5,–
Oc1ccc(N=Nc2ccc3c(c2)OCCO3)c2cccnc12,50.2,–
O=CC1=C(c2ccccc2)Oc2ccccc2O1,47.5,–
O=[N+]([O-])c1ccc(Sc2cccc[n+]2[O-])c2nonc12,4.46,–
CC(C)N1CCN(c2ccc(OCC3COC(Cn4cncn4)(c4ccc(Cl)cc4Cl)O3)cc2)CC1 (stereo unspecified),12.4,–
CCCCCCCCCCOC(=O)Cn1c(COc2ccccc2OC)[n+](C)c2ccccc21,26.7,–
CCCCNc1c(-c2cccc(-c3ccc(OC)cc3)c2)nc2ccc(C)cn12,22.7,–
O=C1c2cc(F)ccc2-n2c1nc1ccccc1c2=O,50,–
CNc1ccc2oc(C[C@H]3O[C@@]4(CC[C@H]3C)O[C@H]([C@H](C)C(=O)c3ccc[nH]3)[C@H](C)C[C@H]4C)nc2c1C(=O)O,11.1,–
Cc1oc2c(c1C(=O)c1ccccc1)C(=O)C(=O)c1ccccc1-2,8.43,–
CCOC(=O)c1cc2c(=Cc3ccc(N(C)C)cc3)c3ccccc3n2[n+]1C,29,–
CC(=O)Oc1ccc(OC(C)=O)c(SCCCCCCl)c1,42.6,–
Oc1c(C(Nc2cccc(C(F)(F)F)c2)c2ccncc2)ccc2cccnc12 (stereo unspecified),48.9,–
Cc1ccc(Cl)cc1NC1=C/C(=N\S(=O)(=O)c2cccs2)c2ccccc2C1=O,8.07,–
CN(Cc1ccc(Cl)s1)C(=O)CCl,25,–
CCc1cc(SC#N)cc(C)c1NC(=O)CCl,49.6,–
Cc1cccc2sc(NNC(=O)c3ccc(S(=O)(=O)N4CCCC(C)C4)cc3)nc12 (stereo unspecified),40.5,–
Cc1ccc(NC(=O)CN(C)C(=O)c2cccnc2Nc2cccc(C(F)(F)F)c2)cc1,–,-0.151% (inactive)
COc1ccc2oc(=O)c(-c3csc(Nc4cccc(O)c4)n3)cc2c1,–,4.36% (inactive)
COC(=O)C1=C(C)NC(C)=C(C(=O)OCC(C)C)C1c1ccccc1[N+](=O)[O-] (stereo unspecified),–,-14.8% (inactive)

Structure (SMILES),AC35 [1] [µM],"activity change, negative = toxicity [2]"
CC12CC3(C)CC(C)(C1)CC(NC(=O)N1CCCC1)(C2)C3,–,17.5% (inactive)
O=C(COc1ccc([N+](=O)[O-])cc1)Nc1nc(-c2ccccn2)cs1,–,-17.8% (inactive)
Cc1ccc2c(C)c3ccc4ccccc4c3c[n+]2c1,–,11.9% (inactive)
O=C1OCC(CO)(CO)N=C1NNc1ccc(Cl)c(Cl)c1,–,2.06% (inactive)
CCCCC(=O)NC(=S)NNC(=O)CCc1ccccc1,–,-16.3% (inactive)
Clc1ccc(C2=NCCN2)cc1,–,6.22% (inactive)
O=C(NCc1ccncc1)c1ccccc1Nc1ccc(SC(F)F)cc1,–,3.29% (inactive)
O=C(NCCC1=CCCCC1)c1c(O)nc2sccn2c1=O,–,15.1% (inactive)
O=C(Oc1c(Cl)cc(Cl)c2cccnc12)c1cccs1,–,19% (inactive)
O=C(/C(=N/N=C/c1ccc(O)c(O)c1O)c1ccccc1)c1ccccc1,–,-5.73% (inactive)
COc1ccc(-c2cc(C(=O)N3CCN(c4ccccc4F)CC3)c3ccccc3n2)c(OC)c1,–,-9.73% (inactive)
CCN1C(=O)C(CC(=O)Nc2ccccc2Cl)N(NC(=O)c2cccc(F)c2)C1=S (stereo unspecified),–,11.9% (inactive)
CCN(CC)C(=O)CSc1ncnc2sc(-c3ccccc3)cc12,–,9.41% (inactive)
Cc1ccc2oc(-c3ccccc3)c(C(=O)O)c(=O)c2c1,–,-13.9% (inactive)
CCCCC(CC)c1nnc(NC(=O)c2cccs2)s1 (stereo unspecified),–,-1.51% (inactive)
FC(F)(F)c1cccc(N2CCc3cn[nH]c32)c1,–,-9.14% (inactive)
C(=C1c2ccccc2-c2ccccc21)c1ccncc1,–,14.2% (inactive)
O=c1c2ccccc2c(-c2ccc(O)cc2)nn1-c1cccc(C(F)(F)F)c1,–,-18.6% (inactive)
Cc1nc(SCc2ccc(OCCC(C)C)cc2)n[nH]1,–,3.46% (inactive)
Cc1cccc(Oc2nc(-c3ccccn3)nc3ccccc23)c1,–,18.9% (inactive)
O=C(CSc1ccc(-c2ccccn2)nn1)c1ccccc1,–,-10.1% (inactive)
CCCCCCCc1ccc(-c2ccc(O)cc2)nc1,–,25.5% (inactive)
Cc1cc(Cl)ccc1C(=O)C1CCCN(C(=O)c2cncs2)C1 (stereo unspecified),–,14.2% (inactive)
O/N=C(\c1ccc(Cl)cc1)c1cc2ccccc2o1,–,-9.72% (inactive)

Structure (SMILES),AC35 [1] [µM],"activity change, negative = toxicity [2]"
c1ccc(Cn2cc(-c3cccnc3)cn2)cc1,–,-0.362% (inactive)
COC(OC)c1ccc(C#N)c(SCc2ccccc2)n1,–,-6.85% (inactive)
Cc1c(C(=O)O)cccc1-c1ccc(/C=N/Nc2ccc(Br)cc2)o1,–,-0.158% (inactive)
COc1ccc2[nH]c(=O)c(CN(Cc3cccnc3)C(=O)Nc3ccccc3)cc2c1,–,-11.7% (inactive)
COc1cnc(-c2ccccn2)nc1Sc1ccc(C)cc1,–,-14.4% (inactive)
CC1(C)C=Cc2c(ccc3c2OC[C@@H](c2ccc(O)cc2O)C3)O1,–,16.2% (inactive)
Clc1ccc(COC(Cn2ccnc2)c2ccc(Cl)cc2Cl)c(Cl)c1 (stereo unspecified),–,5.58% (inactive) and 0.687% (inactive)
CCCCn1c(=O)c(C(=O)NCc2ccncc2)c(O)c2ccccc21,–,25% (inactive)
CCCn1c2ccccc2c2cc(C(=O)O)ccc21,–,-3.19% (inactive)
CC/C(=N/NC(=O)c1ccccc1O)c1c(C)[nH]n(-c2ccccc2)c1=O,–,-2.64% (inactive)
COc1ccc(O)c(C(=O)CC(=O)c2ccccc2C)c1,–,0.039% (inactive)
C=CCn1c(-c2cc(-c3ccc(C)cc3)nc3ccccc23)n[nH]c1=S,–,15.5% (inactive)
COc1cc2c(c(OC)c1OC)-c1ccc(O)c(=O)cc1[C@@H](NC(C)=O)CC2,–,4.18% (inactive)
O=C(NOC(=O)c1ccccc1)c1ccccc1,–,-12.1% (inactive)
C=CCOC(Cn1ccnc1)c1ccc(Cl)cc1Cl (stereo unspecified),–,9.44% (inactive)
CCCC(C)Sc1nc2c([nH]1)c(=S)n(C)c(=O)n2C (stereo unspecified),–,0.769% (inactive)
CCC1=NN(C(=O)c2cccc(Br)c2)C(O)(c2ccc(Br)cc2)C1 (stereo unspecified),–,4.18% (inactive)
CCc1ccc(OCc2n[nH]c(=S)n2Cc2ccccc2)cc1,–,3.81% (inactive)
Cc1csc(NC(=O)C(C)Oc2ccc(Cl)cc2C)n1 (stereo unspecified),–,8.91% (inactive)
CCCCNC(=S)N/N=C1\CCCCc2ccccc21,–,1.99% (inactive)
Cc1ccccc1C(=O)NNC(=S)NC(=O)c1ccc(Cl)cc1Cl,–,-5.68% (inactive)
c1ccc(-c2ccc(OCCCn3cncn3)cc2)cc1,–,5.17% (inactive)
CCN(CC)c1ccc(/C=N/NC(=O)c2c(Cl)cnn2C)c(O)c1,–,-24.5% (inactive)
